Measured values reported in publication PMC5048338, “Discovery of 4,6-disubstituted pyrimidines as potent inhibitors of the heat shock factor 1 (HSF1) stress pathway and CDK9” (Medchemcomm, 2016).

Assays:
[1] = target: T1, CDK6/cyclin D3 (Homo sapiens, UniProt Q00534); assay: EMD Millipore (Eurofins) CDK panel; format: biochemical; conditions: EMD Millipore screening panel, N = 1
T1 construct: purchased EMD Millipore screening panel (now Eurofins)
Procedure: (§1) Therefore 4,6-pyrimidine 3 was submitted to a EMD Millipore CDK panel to assess potency across the selected CDK family members (Table 3). Modest activity was observed against several CDKs; […]. […]. page 4: […]
(§2) mM Mg Acetate and [9-33P]-ATP (specific activity approx. 500 cpm/pmol, concentration as required). The reaction is initiated by the addition of the MgATP mix. After incubation for 40 minutes at room temperature, the reaction is stopped by the addition of 3% phosphoric acid solution. 10 μL of the reaction is then spotted onto a P30 filtermat and washed three times for 5 minutes in 75 mM phosphoric acid and once in methanol prior to drying and scintillation counting. […]
(§3) , 10 mM MgAcetate and […]
as §2, with “(specific” for “mM Mg Acetate and [9-33P]-ATP (specific”

[2] = target: T2, CDK7/cyclin H/MAT1 (Homo sapiens, UniProt P50613); assay: EMD Millipore (Eurofins) CDK panel; format: biochemical; conditions: EMD Millipore screening panel, N = 1
T2 construct: purchased EMD Millipore screening panel (now Eurofins)
Procedure: as §1, §2, §3
as §2, with “(specific” for “mM Mg Acetate and [9-33P]-ATP (specific”

[3] = target: T3, CDK9/cyclin T1 (Homo sapiens, UniProt P50750); assay: EMD Millipore (Eurofins) CDK panel; format: biochemical
T3 construct: purchased EMD Millipore screening panel (now Eurofins)
Procedure: as §1, §2
CDK9/cyclinT1 (h) is incubated with 8 mM MOPS pH 7.0, 0.2 mM EDTA, 100 μM […]
as §3
as §2, with “(specific” for “mM Mg Acetate and [9-33P]-ATP (specific”

[4] = target: CDK3/cyclin E (Homo sapiens, UniProt Q00526); assay: EMD Millipore (Eurofins) CDK panel; conditions: read-out: CDK3/cyclin E IC50; EMD Millipore screening panel, N = 1
Procedure: Eurofins CDK panel assay conditions
(§4) CDK1/cyclinB (h) is incubated with 8 mM MOPS pH 7.0, 0.2 mM EDTA, 0.1 mg/mL histone H1, 10 mM MgAcetate and [9-33P]-ATP (specific activity approx. 500 cpm/pmol, concentration as required). The reaction is initiated by the addition of the MgATP mix. After incubation for 40 minutes at room temperature, the reaction is stopped by the addition of 3% phosphoric acid solution. 10 μL of the reaction is then spotted onto a P30 filtermat and washed three times for 5 minutes in 75 mM phosphoric acid and once in methanol prior to drying and scintillation counting.
(§5) CDK2/cyclinE (h) is incubated with 8 mM MOPS pH 7.0, 0.2 mM EDTA, 0.1 mg/mL histone H1, 10
(§6) CDK3/cyclinE (h) is incubated with 8 mM MOPS pH 7.0, 0.2 mM EDTA, 0.1 mg/mL histone H1, 10 mM Mg Acetate and [9-33P]-ATP (specific activity approx. 500 cpm/pmol, concentration as

[5] = target: T4, CDK5/p35 (Homo sapiens, UniProt Q00535); assay: EMD Millipore (Eurofins) CDK panel; format: biochemical; conditions: EMD Millipore screening panel, N = 1
T4 construct: purchased EMD Millipore screening panel (now Eurofins)
Procedure: Therefore 4,6-pyrimidine 3 was submitted to a EMD Millipore CDK panel to assess potency across the selected CDK family members (Table 3). Modest activity was observed against several CDKs; […]. […]. page 4:
as §2, with “CDK5/p35 (h) is incubated with 8 mM MOPS pH 7.0, 0.2 mM EDTA, 0.1 mg/mL histone H1, 10 mM Mg” for “mM Mg”
as §3
as §2, with “(specific” for “mM Mg Acetate and [9-33P]-ATP (specific”

[6] = target: CDK1/cyclin B (Homo sapiens, UniProt P06493); assay: EMD Millipore (Eurofins) CDK panel; conditions: read-out: CDK1/cyclin B IC50; EMD Millipore screening panel, N = 1
Procedure: Eurofins CDK panel assay conditions
as §4, §5, §6

[7] = target: T5, CDK2/cyclinE (Homo sapiens, UniProt P24941); assay: EMD Millipore (Eurofins) CDK panel; conditions: read-out: CDK2/cyclin E IC50; EMD Millipore screening panel, N = 1
Procedure: Eurofins CDK panel assay conditions
as §4, §5, §6

[8] = target: T5, CDK2/cyclinE; assay: CDK2 enzyme assay: off-chip mobility shift assay; format: biochemical; set-up: purchased Upstate/Millipore
Procedure: CDK2 enzyme assay: Off-chip Mobility SHIFT Assay
All reagents were purchased from Sigma-Aldrich unless otherwise specified. Inhibition of CDK2/cyclinE activity was quantified using an off-chip incubation, mobility shift assay, which uses a microfluidic chip (Caliper Life Sciences) to measure the conversion of a fluorescent peptide substrate to phosphorylated product. An Off-chip Mobility Shift Chip with 12 sippers (Caliper Life Sciences) was prepared for use according to the manufacturer’s instructions using Coating Reagent #3 (Caliper Life Sciences). The off-chip incubation was carried out in white, 384-well, flat bottom, low volume assay plates (Greiner). 5 µL peptide mix (1.5 µM substrate peptide (fluorescein-QSPKKG-CONH2, Bachem) and 90 µM ATP in kinase base buffer (50 mM HEPES, pH7.5 (Calbiochem), 0.06% CHAPSO)) were added to each well of the prepared compound plates which contained 120 nL compound stock solution per well. The reaction was then initiated by the addition of 6 µL enzyme mix (1.0 nM CDK2/cyclin E (Upstate/Millipore), 1.0 mM DTT and 5.0 mM MgCl2 in kinase base buffer). After incubation for 60 min at room temperature, each reaction was terminated by the addition of 10µL of stop solution containing 100 mM HEPES pH 7.5 (Calbiochem), 0.033% Brij-35, 0.22% Coating Reagent #3 (Caliper Life Sciences), 44 mM EDTA and 5 % DMSO. Reaction products were analysed using a Caliper LabChip LC3000 instrument and peak height was used to calculate percentage conversion of substrate to product.
For compound response testing, a 12 point compound concentration range was used. Compounds were acoustically dosed (Echo 555; Labcyte) into assay-ready plates using 11 half log intervals from 100 μM to […] plus a 12th point at 0.01 μM. Each well was backfilled with the required volume up to 120 nL of 100% DMSO to ensure a final 1% v/v DMSO concentration in the assay. In addition to the compound test wells, each plate carried maximum and minimum controls. Staurosporine at 10 μM was used to inhibit CDK2 activity for the minimum control. As a maximum control, 120 nL pure DMSO was added to the wells. Each plate contained at least 11 randomly distributed maximum and minimum controls. After the addition of compounds to the assay plates, the assay was performed as detailed above. Percentage conversion of substrate to product was used to calculate the effect of each compound on the kinase activity of CDK2/cyclinE. Enzyme inhibition model 3, non-linear curve fit analysis within OriginLab™ software was used to fit dose response curves and estimate the […]
concentration of compound required to reduce the enzyme activity to 50% of the conversion calculated from an average of the maximum controls.
Cell-based ELISA (Cellisa) for HSP72 expression
To follow HSP72 protein expression, a product of HSF1 transcriptional activity, Cellisa was developed. Cells (5-8x10^4cells/ml) were seeded into 96-well plates and incubated at 37 °C for 48 h.
Compounds were then added at a range of concentrations and incubated for 1 h before addition of 17-AAG (250 nM). Cells were then incubated for 18 h. The medium was removed and cells were fixed with fixing solution (4% paraformaldehyde, 0.3% TritonX-100 in PBS) for 30 min at 4 °C. The plates were then washed with 0.1% Tween-20/deionised water before blocking with 5% milk for 30 min at 37 °C. After washing the plates, HSP72 antibody (SPA-810, Enzo Life) was added for 1.5 h at 37 °C.
Following 4 x washes, the plates were incubated with europium-labelled anti-mouse antibody (0.6ug/ml) in Delfia assay buffer (Perkin Elmer) for 1 h at 37 °C. After washing the plates, Delfia enhancement solution was added, shaken for 10 min before reading in the Envision plate reader (Perkin-Elmer) with excitation at 340 nm and emission at 615 nm. The plates were washed again before protein determination using the BCA assay. The europium counts were normalised for the amount of protein in each well. The 50% inhibitory concentration value of the compound was then calculated and presented. […]

[9] = tested on: HSF1-stress pathway; assay: ArrayScan HSP72 protein assay (HSF1-stress pathway inhibition, 17-AAG induced)
Procedure: To discover inhibitors of the HSF1-stress pathway, we employed an automated cellular imaging and analysis method (ArrayScan™) that quantifies the ability of a compound to suppress the expression of the HSF1-mediated inducible HSP70 isoform, HSP72.
U2OS cells (1500 per well) were plated in 40 μL of DMEM media (containing 10% fetal calf serum and 2 mM Glutamax T-1) in costar 384-well plates and left overnight at 37 °C and 5% CO2 to adhere.
treatment with compound, all wells except min wells were dosed with 17AAG diluted in DMSO (10
°C and 5% CO2. The following day the cells were fixed by addition of 20 μL/well of 12% formaldehyde with 1:1700 Hoechst in PBS for 10 min at room temperature. The fixative was decanted and the wells washed once with 50 μL of phosphate buffer saline (PBS).The PBS was subsequently aspirated, and the cells were permeabilized by addition of 20 μL/well of PBS 0.3% Triton X-100 for 20 min at room temperature. The wells were then washed with 80 μL of PBS prior to the addition of 20 μL of combined primary and secondary antibodies diluted in PBS (1:10 000 mouse anti-Hsp72
11001 molecular probes), for 2 h at room temperature. The wells were then washed with 50 μL of PBS. Finally, 50 μL of PBS was added to each well, and the plates were sealed ready to analyze.
Analysis was carried out using a Cellomics Arrayscan VTI instrument and the Cellomics Arrayscan Compartmental Analysis algorithm to measure cellular levels of HSP72.
100 μM to 0.1 μM plus a 12th point at 0.01 μM. Each well was backfilled with the required volume up to 120 nL of 100% DMSO to ensure a final 1% v/v DMSO concentration in the assay. In addition to the compound test wells, each plate carried maximum and minimum controls. Staurosporine at 10 μM was used to inhibit CDK2 activity for the minimum control. As a maximum control, 120 nL pure DMSO was added to the wells. Each plate contained at least 11 randomly distributed maximum and minimum controls. After the addition of compounds to the assay plates, the assay was performed as detailed above. Percentage conversion of substrate to product was used to calculate the effect of each compound on the kinase activity of CDK2/cyclinE. Enzyme inhibition model 3, non-linear curve fit analysis within OriginLab™ software was used to fit dose response curves and estimate the

T3 sequence (P50750 whole entry): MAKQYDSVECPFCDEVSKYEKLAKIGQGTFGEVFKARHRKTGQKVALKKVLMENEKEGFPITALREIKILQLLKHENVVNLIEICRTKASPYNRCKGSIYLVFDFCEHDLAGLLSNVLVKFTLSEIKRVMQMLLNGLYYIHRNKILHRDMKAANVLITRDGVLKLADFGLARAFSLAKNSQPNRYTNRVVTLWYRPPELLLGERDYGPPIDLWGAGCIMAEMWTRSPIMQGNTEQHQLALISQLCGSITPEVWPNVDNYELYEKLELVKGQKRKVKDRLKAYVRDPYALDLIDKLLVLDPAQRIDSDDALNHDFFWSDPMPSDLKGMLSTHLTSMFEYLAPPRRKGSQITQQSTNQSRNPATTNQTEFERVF
T3 sequence (O60563 whole entry partner): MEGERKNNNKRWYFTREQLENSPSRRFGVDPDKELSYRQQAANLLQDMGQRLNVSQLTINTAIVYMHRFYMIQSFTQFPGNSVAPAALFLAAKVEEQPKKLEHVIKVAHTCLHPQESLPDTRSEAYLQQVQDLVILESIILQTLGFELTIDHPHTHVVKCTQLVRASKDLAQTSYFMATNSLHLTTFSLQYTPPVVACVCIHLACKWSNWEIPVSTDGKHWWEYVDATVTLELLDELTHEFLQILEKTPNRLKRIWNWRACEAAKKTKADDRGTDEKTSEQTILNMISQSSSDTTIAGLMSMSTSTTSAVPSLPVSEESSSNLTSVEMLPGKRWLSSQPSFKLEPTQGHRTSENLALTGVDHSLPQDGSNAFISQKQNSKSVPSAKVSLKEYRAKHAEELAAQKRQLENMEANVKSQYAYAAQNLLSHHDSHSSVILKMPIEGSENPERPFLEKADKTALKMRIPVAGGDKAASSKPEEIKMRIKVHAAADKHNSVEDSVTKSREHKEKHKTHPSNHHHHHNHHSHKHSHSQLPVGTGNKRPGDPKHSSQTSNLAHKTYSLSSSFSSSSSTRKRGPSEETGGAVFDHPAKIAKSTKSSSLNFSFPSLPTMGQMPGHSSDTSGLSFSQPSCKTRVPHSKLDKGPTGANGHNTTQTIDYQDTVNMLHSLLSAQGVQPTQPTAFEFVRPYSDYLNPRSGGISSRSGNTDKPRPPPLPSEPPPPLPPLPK
T2 sequence (P50613 whole entry): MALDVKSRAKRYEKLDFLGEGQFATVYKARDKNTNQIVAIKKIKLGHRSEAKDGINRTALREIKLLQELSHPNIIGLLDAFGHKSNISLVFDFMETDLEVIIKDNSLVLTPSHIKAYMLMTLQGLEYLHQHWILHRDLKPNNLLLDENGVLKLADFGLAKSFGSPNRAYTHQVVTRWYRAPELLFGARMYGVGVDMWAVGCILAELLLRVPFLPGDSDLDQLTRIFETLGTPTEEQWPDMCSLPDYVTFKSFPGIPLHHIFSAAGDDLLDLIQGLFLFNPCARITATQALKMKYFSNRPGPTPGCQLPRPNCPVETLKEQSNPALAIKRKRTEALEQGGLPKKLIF
T2 sequence (P51946 whole entry partner): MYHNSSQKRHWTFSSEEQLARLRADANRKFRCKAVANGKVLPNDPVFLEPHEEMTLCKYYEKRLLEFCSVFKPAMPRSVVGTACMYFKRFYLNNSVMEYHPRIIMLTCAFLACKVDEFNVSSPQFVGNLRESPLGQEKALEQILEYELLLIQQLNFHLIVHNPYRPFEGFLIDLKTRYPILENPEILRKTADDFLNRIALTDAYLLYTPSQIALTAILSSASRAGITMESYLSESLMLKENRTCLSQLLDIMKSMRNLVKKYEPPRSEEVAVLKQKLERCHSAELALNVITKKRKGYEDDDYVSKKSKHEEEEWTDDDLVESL
T2 sequence (P51948 whole entry partner): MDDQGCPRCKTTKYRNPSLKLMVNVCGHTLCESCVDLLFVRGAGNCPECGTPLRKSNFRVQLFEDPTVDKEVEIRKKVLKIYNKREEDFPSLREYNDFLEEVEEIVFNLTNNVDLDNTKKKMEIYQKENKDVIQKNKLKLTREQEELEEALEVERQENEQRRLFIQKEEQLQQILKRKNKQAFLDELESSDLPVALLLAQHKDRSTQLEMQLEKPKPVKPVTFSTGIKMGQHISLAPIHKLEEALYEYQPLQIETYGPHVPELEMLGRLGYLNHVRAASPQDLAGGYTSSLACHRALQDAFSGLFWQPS
Chain of CDK1/cyclin B (P06493 whole entry): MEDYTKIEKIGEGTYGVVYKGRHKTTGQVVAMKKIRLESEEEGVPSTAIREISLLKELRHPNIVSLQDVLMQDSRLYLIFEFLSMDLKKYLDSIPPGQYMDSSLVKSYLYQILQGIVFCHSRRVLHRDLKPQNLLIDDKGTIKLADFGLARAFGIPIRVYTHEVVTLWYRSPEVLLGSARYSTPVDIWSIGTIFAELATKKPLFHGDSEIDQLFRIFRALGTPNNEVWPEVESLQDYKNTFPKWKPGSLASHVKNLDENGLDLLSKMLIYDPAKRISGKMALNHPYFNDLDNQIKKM
Chain of CDK1/cyclin B (P14635 whole entry partner): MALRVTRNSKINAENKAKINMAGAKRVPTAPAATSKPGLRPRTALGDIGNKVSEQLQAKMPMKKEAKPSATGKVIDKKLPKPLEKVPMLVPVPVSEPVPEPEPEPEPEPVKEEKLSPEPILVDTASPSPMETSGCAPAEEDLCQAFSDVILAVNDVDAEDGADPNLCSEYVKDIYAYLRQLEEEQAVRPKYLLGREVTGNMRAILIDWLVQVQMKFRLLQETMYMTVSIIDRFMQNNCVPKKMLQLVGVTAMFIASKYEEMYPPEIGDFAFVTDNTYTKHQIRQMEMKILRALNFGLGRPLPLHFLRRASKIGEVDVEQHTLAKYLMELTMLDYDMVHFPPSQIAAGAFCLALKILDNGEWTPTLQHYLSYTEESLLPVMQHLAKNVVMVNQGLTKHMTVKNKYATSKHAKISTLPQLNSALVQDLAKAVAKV
T1 sequence (Q00534 whole entry): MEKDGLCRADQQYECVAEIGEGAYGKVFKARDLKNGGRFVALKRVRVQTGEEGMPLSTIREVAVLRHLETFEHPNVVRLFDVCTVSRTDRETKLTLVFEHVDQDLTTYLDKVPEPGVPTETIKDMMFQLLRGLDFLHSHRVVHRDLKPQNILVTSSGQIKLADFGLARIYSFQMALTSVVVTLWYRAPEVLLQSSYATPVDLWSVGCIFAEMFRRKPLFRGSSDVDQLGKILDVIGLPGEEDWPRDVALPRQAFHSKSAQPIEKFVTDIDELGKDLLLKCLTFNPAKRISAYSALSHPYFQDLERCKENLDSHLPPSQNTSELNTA
T1 sequence (P30281 whole entry partner): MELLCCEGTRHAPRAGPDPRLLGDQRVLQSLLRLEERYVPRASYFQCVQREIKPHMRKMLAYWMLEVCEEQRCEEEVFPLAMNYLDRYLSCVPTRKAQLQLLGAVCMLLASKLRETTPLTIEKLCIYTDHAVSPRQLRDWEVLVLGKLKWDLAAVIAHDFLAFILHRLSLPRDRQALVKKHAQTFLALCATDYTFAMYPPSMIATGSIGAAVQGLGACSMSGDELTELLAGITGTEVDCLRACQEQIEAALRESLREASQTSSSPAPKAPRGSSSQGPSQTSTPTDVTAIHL
T4 sequence (Q00535 whole entry): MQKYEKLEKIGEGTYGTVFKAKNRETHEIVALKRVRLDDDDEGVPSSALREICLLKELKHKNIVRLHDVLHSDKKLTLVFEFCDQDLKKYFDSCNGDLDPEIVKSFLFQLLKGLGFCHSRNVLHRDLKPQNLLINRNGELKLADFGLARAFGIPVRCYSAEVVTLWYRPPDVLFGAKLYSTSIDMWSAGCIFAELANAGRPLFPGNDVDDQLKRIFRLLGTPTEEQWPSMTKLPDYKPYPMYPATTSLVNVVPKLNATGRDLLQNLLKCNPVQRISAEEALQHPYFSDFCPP
T4 sequence (Q15078 whole entry partner): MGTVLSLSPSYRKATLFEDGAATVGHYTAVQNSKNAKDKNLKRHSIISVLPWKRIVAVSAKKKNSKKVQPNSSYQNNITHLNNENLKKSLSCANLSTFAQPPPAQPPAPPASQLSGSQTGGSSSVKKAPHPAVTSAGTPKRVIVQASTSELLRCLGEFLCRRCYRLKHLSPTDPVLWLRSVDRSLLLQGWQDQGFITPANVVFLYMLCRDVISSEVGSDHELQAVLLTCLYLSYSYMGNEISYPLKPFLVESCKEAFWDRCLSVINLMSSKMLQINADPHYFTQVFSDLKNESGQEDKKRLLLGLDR

IC50 [1]: 1.3 µM
IC50 [2]: 1.1 µM
IC50 ([3]; EMD Millipore screening panel, N = 1): 0.014 µM
ratio of activity CDK9/CyclinT1 ([3]; ratio between CDK2/7/9, CDK9 = 1, EMD Millipore Screening Panel): 1
IC50 [4]: 3.5 µM
IC50 [5]: 0.61 µM
IC50 [6]: 1.8 µM
IC50 [7]: 2.8 µM
IC50 ([8]; biochemical, CDK2/cyclinE, average of two determinations): 0.58 µM
fold more active against CDK2 compared with phenyl compound 2 ([8]; relative to compound 2): 35 fold
IC50 ([9]; Homo sapiens, U2OS, read-out: HSF1 IC50): 0.08 µM
Compound: CN(C)CCOc1ccc(Nc2cc(-n3cnc4ccccc43)ncn2)nc1 [Compound 3]
fold more potent in the HSF1-stress pathway assay compared with phenyl compound 2 ([9]; relative to compound 2): approximately 15 fold
